Reference: article PMC9424690, “Phosphonic acid-containing inhibitors of tyrosyl-DNA phosphodiesterase 1” (Frontiers in Chemistry, 2022)
Read-outs that look alike come from different tables or passages of the source.

Experiments:
full-length TDP1 [1] = target: T1, full-length TDP1 (Homo sapiens, UniProt Q9NUW8); design: method as in Zhao et al., 2021; conditions: gel-based fluorescence assay, compounds reported in previous paper, ref Zhao et al., 2021; cited from earlier work
T1 construct: was incubated with recombinant full-length TDP1 or TDP1 (148–608) (40 p.m.)

full-length TDP1 [2] = target: T1, full-length TDP1; experiment: Gel-based fluorescence assay of TDP1-catalyzed hydrolysis, full-length TDP1; type: biochemical; conditions: for IC50: full-length recombinant TDP1, 5′-Cy5 N14Y DNA substrate, 15 min, room temperature, repeated three times
Experimental: (§1) The synthetic products were examined for their ability to inhibit TDP1 catalysis in in vitro gel-based fluorescence assays as previously described ([Lountos et al., 2019]; [Zhao et al., 2021]). A 5′-Cy5-labelled DNA substrate (N14Y, 5′-Cy5-[…]-pY-3′) was incubated in TDP1 reaction buffer with recombinant TDP1 ([…].) or truncated TDP1 (148–608) in the absence or presence of inhibitors for 15 min at room temperature. Inhibitors were evaluated at concentrations ranging from 12 μM to 27 mM (Figure 4). The TDP1 inhibition values were calculated based on gel images of cleavage product (N14P, 5′-Cy5-[…]-p-3′) shown in Figure 4 and listed in Table 1.
(§2) The inhibition of TDP1 was also conducted according to gel-based as previously described ([Lountos et al., 2019]; [Zhao et al., 2021]). Briefly, the DNA substrate (1 nM, 5′Cy5-[…]-pY-3′) was incubated with recombinant full-length TDP1 or TDP1 (148–608) (40 p.m.) in the absence or presence of inhibitors for 15 min at room temperature in TDP1 reaction buffer (50 mM Tris HCl, pH 7.5, 80 mM KCl, 2 mM EDTA, 1 mM DTT, 40 μg/ml BSA and 0.01% Tween-20). Reactions were stopped by adding an equal volume of gel loading buffer (99.5% (v/v) formamide, 5 mM EDTA). Samples were then subjected to a 20% denaturing PAGE gel following by gel scanning using a Typhoon FLA 9500 scanner (GE Healthcare). The IC50 values of TDP1 inhibitors were calculated by comparing the percentage of cleavage product (5′Cy5-[…]-p-3′) to DMSO control.

TDP1 (148–608) = target: T2, TDP1 (148–608) (Homo sapiens, UniProt Q9NUW8); experiment: Gel-based fluorescence assay of TDP1-catalyzed hydrolysis, truncated TDP1 (148–608); type: biochemical; conditions: for IC50: truncated TDP1 (148–608) catalytic domain, 5′-Cy5 N14Y DNA substrate, 15 min, room temperature, repeated three times
T2 construct: was incubated with recombinant full-length TDP1 or TDP1 (148–608) (40 p.m.)
Experimental: as §1, §2

[3] = Drug solubility observed at high concentrations in the gel assay; type: physicochemical; conditions: high concentrations in TDP1 gel assay (crescent vague bands); series up to 9 mM (3c) or 27 mM
Experimental: FIGURE 4 Representative gels for inhibition of full-length TDP1-catalyzed hydrolysis by phenylphosphonic acids 3a—3e and benzylphosphonic acids 4a—4c. In each gel: lane 1, N14Y only; lane 2, N14Y and TDP1; lanes 3–10, 3-fold serial dilution of drugs from 12 μM to 27 mM except for 3c from 12 μM to 9 mM.

T2 sequence (Q9NUW8 148-608): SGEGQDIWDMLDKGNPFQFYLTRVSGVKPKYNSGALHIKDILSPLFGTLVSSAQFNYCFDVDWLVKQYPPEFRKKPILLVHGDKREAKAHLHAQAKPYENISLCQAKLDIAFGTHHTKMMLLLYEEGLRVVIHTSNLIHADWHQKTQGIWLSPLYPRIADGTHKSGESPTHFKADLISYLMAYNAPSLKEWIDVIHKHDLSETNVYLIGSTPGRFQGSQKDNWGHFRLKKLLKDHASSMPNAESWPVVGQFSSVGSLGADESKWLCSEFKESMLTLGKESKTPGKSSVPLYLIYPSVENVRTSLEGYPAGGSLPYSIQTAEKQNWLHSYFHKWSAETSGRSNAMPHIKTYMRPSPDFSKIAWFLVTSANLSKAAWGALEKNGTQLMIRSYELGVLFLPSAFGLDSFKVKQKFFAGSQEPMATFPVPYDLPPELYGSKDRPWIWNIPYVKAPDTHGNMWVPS
T1 sequence (Q9NUW8 whole entry): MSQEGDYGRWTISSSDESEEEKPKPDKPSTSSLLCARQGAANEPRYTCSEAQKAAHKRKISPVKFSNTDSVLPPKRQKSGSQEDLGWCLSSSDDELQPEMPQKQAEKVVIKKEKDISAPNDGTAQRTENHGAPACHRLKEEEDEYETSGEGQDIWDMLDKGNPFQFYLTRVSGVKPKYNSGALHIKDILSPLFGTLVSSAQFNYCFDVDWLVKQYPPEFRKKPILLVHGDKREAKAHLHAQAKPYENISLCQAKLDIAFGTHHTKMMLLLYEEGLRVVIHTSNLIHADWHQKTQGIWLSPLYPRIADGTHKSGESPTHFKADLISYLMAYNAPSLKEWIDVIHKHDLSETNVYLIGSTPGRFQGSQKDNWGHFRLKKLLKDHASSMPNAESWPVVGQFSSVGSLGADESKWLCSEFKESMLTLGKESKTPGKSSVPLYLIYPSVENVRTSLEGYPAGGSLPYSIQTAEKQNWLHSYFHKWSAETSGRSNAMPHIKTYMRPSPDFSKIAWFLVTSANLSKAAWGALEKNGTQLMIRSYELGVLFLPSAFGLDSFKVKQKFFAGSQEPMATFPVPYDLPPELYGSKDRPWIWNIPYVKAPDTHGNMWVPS

| IC50 (full-length TDP1 [2]) [µM] | IC50 (TDP1 (148–608)) [µM] | Drug solubility [3] | More potent using catalytic domain TDP1 (148–608) relative to full-length TDP1 (TDP1 (148–608); TDP1 (148–608) vs full-length TDP1) [fold] | Increase of inhibitory potency on adding a 7-phenyl group (full-length TDP1 [2]; full-length TDP1, 3c and 3e relative to 3b and 3d, 4c relative to 4b) | SMILES | IC50 (full-length TDP1 [1]) [µM] |
| --- | --- | --- | --- | --- | --- | --- |
| 293 ± 7.5 | 605 ± 32 | poor drug solubility |  |  | O=P(O)(O)c1ccc(Nc2c(-c3ccccc3O)nc3cc(-c4ccccc4)ccn23)cc1 [Compound 3e, (4-((2-(2-Hydroxyphenyl)-7-phenylimidazo [1,2-a]pyridin-3-yl)amino)phenyl)phosphonic acid] |  |
| 1280 ± 112 | 4360 ± 472 |  |  |  | O=P(O)(O)Cc1ccc(Nc2c(-c3ccccc3)nc3cnccn23)cc1 [Compound 4a, (4-((2-Phenylimidazo [1,2-a]pyrazin-3-yl)amino)benzyl)phosphonic acid] |  |
| 1650 ± 850 | 4810 ± 228 |  |  |  | O=P(O)(O)Cc1ccc(Nc2c(-c3ccccc3)nc3ccccn23)cc1 [Compound 4b, (4-((2-Phenylimidazo [1,2-a]pyridin-3-yl)amino)benzyl)phosphonic acid] |  |
| 583 ± 11.5 | 1190 ± 350 |  |  | approximately 3 fold | O=P(O)(O)Cc1ccc(Nc2c(-c3ccccc3)nc3cc(-c4ccccc4)ccn23)cc1 [Compound 4c, (4-((2,7-Diphenylimidazo [1,2-a]pyridin-3-yl)amino)benzyl)phosphonic acid] |  |

The next lines start with the compound.

| SMILES | IC50 (full-length TDP1 [2]) [µM] | IC50 (TDP1 (148–608)) [µM] | Drug solubility [3] | More potent using catalytic domain TDP1 (148–608) relative to full-length TDP1 (TDP1 (148–608); TDP1 (148–608) vs full-length TDP1) [fold] | Increase of inhibitory potency on adding a 7-phenyl group (full-length TDP1 [2]; full-length TDP1, 3c and 3e relative to 3b and 3d, 4c relative to 4b) | IC50 (full-length TDP1 [1]) [µM] |
| --- | --- | --- | --- | --- | --- | --- |
| O=C(O)c1ccc(Nc2c(-c3ccccc3)nc3cnccn23)cc1C(=O)O [Compound 2a] |  |  |  |  |  | > 100 |
| O=P(O)(O)c1ccc(Nc2c(-c3ccccc3)nc3cnccn23)cc1 [Compound 3a, (4-((2-Phenylimidazo [1,2-a]pyrazin-3-yl)amino)phenyl)phosphonic acid] | 2450 ± 36 | 4720 ± 430 |  |  |  |  |
| O=P(O)(O)c1ccc(Nc2c(-c3ccccc3)nc3ccccn23)cc1 [Compound 3b, (4-((2-Phenylimidazo [1,2-a]pyridin-3-yl)amino)phenyl)phosphonic acid] | 1660 ± 160 | 3810 ± 751 |  |  |  |  |
| O=P(O)(O)c1ccc(Nc2c(-c3ccccc3)nc3cc(-c4ccccc4)ccn23)cc1 [Compound 3c, (4-((2,7-Diphenylimidazo [1,2-a]pyridin-3-yl)amino)phenyl)phosphonic acid] | 545 ± 8 | 225 ± 2.3 | poor drug solubility | 2 |  |  |
| O=P(O)(O)c1ccc(Nc2c(-c3ccccc3O)nc3ccccn23)cc1 [Compound 3d, (4-((2-(2-Hydroxyphenyl)imidazo [1,2-a]pyridin-3-yl)amino)phenyl)phosphonic acid] | 1580 ± 166 | 4480 ± 50 |  |  |  |  |
